Columns and labels:
[1] = Caco-2 permeability assay (CacoReady kit); type: in vitro ADME; conditions: human
Procedure: Permeability coefficients (Papp values) were obtained from Caco-2 barrier studies predicting oral/intestinal bioavailability of the tested compounds. The assays were performed by using CacoReady™ ready-to-use kits from ReadyCell according to the manufacturers protocol.

[2] = biological target: T1, recombinant human transglutaminase 2 (Homo sapiens, UniProt P21980); assay: Transglutaminase assay (dansylcadaverine incorporation into dimethylcasein, DCC-assay); type: biochemical; conditions: for IC50: recombinant human TG2 10 nM, dansylcadaverine/dimethylcasein, 37° C.
T1 construct: purchased Zedira T022
T1 sequence (P21980 1-687): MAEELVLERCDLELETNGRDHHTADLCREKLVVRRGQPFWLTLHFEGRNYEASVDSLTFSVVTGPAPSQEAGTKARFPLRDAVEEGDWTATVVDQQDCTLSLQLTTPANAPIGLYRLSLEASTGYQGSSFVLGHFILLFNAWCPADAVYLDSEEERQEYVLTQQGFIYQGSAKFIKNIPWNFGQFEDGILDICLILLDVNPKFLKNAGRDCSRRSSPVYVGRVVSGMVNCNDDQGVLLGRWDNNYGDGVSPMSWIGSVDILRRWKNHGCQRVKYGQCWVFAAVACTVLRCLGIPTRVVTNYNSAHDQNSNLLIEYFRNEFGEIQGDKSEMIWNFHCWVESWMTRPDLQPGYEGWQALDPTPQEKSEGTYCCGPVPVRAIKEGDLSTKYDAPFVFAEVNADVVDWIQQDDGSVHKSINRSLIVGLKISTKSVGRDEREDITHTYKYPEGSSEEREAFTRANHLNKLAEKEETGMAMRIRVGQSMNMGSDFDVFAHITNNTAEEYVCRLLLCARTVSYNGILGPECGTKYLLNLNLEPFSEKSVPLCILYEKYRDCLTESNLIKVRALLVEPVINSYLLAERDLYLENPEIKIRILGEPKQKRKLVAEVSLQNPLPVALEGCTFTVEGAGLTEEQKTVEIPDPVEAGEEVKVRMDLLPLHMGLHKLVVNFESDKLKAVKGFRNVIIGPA
Procedure: For the determination of potency of inhibitors against tissue transglutaminase, the incorporation of dansylcadaverine into dimethylcasein (Zedira product T036, Lorand et al., Anal Biochem, 1971, 44:221-31) was measured using recombinant human transglutaminase 2 (Zedira Product T022).
The tissue transglutaminase is diluted in buffer (50 mM Tris-HCl, 7.5 mM CaCl2, 150 mM NaCl, pH=7.4). The final concentration of TG2 in the assay is 10 nM.
A 10 mM inhibitor stock solution is prepared in DMSO, and from this a serial 1:2-fold dilution series is prepared also in DMSO. Each of the initial dilutions is subsequently diluted 1:50-fold with buffer (50 mM Tris-HCl, 7.5 mM CaCl2, 150 mM NaCl, pH=7.4) to yield the final working dilutions containing 2% (v/v) DMSO.
15 μl of inhibitor working dilution are added per well of a 96 well microtiter plate. As control, 15 μl of a 2% (v/v) DMSO solution prepared using the buffer mentioned above are added per well.
Immediately before starting the assay, 600 μl transglutaminase working solution are added to 11.4 ml assay buffer (50 mM Tris-HCl, 10 mM CaCl2, 10 mM glutathione, 2.5% glycerol, 16.7 μM dansylcadaverine, 4 μM N,N-dimethylcasein, 200 mM NaCl, pH=8.0). 285 μl of this reaction mix are added per well containing the inhibitor.
Increase in fluorescence is measured using λex=330 nm and λem=500 nm at 37° C. for 30 min. A slope of the increase in fluorescence between 20 and 30 min is calculated for determination of the IC50 value (inhibitor concentration at which 50% of the initial activity is blocked).
Analysis of enzymatic activity is performed by calculation of the slope of an increase in fluorescence intensity. IC50 values are calculated by plotting the enzymatic activity (as percentage from control containing 2% DMSO instead of inhibitor) against the inhibitor concentration. IC50 is defined as the inhibitor concentration blocking 50% of initial enzyme activity.

[3] = Log D shake flask method (octanol / PBS pH 7.4, HPLC); type: physicochemical; conditions: octanol/phosphate-buffered saline (PBS); octanol / PBS pH 7.4, shake flask
Procedure: In order to classify the inventive compounds according to their lipophilicity, Log D values (distribution coefficient) were determined by means of the well-established shake flask method, measuring the partition of a compound between an octanol and phosphate-buffered saline (PBS, pH 7.4) by HPLC.

Row | SMILES | Papp [1] [×10⁻⁶ cm/s] | IC50 [2] [nM] | logD [3] | fold more potent compared to Ref. 3 ([2]; DCC-assay IC50 ratio vs Ref. 3 (A8)) [fold]
1 | CN(C)C(=O)/C=C/CC[C@H](NC(=O)c1cncn1C)C(=O)Nc1cccn(CC(=O)NC2C3CC4CC(C3)CC2C4)c1=O (stereo partly drawn) [III-76, (S,E)-N^7-(1-(2-(2-adamantylamino)-2-oxoethyl)-2-oxo-1,2-dihydropyridin-3-yl)-N^1,N^1-dimethyl-6-(1-methyl-1H-imidazole-5-carboxamido)hept-2-enediamide] | < 1 | 25 to 250 | 1 to 3 | –
2 | COC(=O)/C=C/CC[C@H](NC(=O)c1ccnn1C)C(=O)Nc1cccn(CC(=O)NC2C3CC4CC(C3)CC2C4)c1=O (stereo partly drawn) [III-119, (S,E)-methyl 7-(1-(2-(2-adamantylamino)-2-oxoethyl)-2-oxo-1,2-dihydropyridin-3-ylamino)-6-(1-methyl-1H-pyrazole-5-carboxamido)-7-oxohept-2-enoate] | < 1 | < 25 | < 1 | –
3 | COC(=O)/C=C/CC[C@H](NC(=O)c1oc2ccccc2c1C)C(=O)Nc1cccn(CC(=O)N[C@H]2C[C@H]3C[C@@H]([C@@H]2C)C3(C)C)c1=O [III-70, (S,E)-methyl 6-(3-methylbenzofuran-2-carboxamido)-7-oxo-7-(2-oxo-1-(2-oxo-2-((1S,2S,3S,5R)-2,6,6-trimethylbicyclo[3.1.1]heptan-3-ylamino)ethyl)-1,2-dihydropyridin-3-ylamino)hept-2-enoate] | 1 to 10 | < 25 | 3 to 5 | –
4 | COC(=O)/C=C/CC[C@H](NC(=O)c1oc2ccccc2c1C)C(=O)Nc1cccn(CC(=O)NC23CC4CC(C2)C(F)(F)C(C4)C3)c1=O [III-55, (S,E)-methyl 7-(1-(2-(4,4-difluoroadamantan-1-amino)-2-oxoethyl)-2-oxo-1,2-dihydropyridin-3-ylamino)-6-(3-methylbenzofuran-2-carboxamido)-7-oxohept-2-enoate] | 1 to 10 | 25 to 250 | 3 to 5 | –
5 | COC(=O)/C=C/CC[C@H](NC(=O)c1cn[nH]n1)C(=O)Nc1cccn(CC(=O)NC2C3CC4CC(C3)CC2C4)c1=O (stereo partly drawn) [III-102, (S,E)-methyl 7-(1-(2-(2-adamantylamino)-2-oxoethyl)-2-oxo-1,2-dihydropyridin-3-ylamino)-7-oxo-6-(1H-1,2,3-triazole-4-carboxamido)hept-2-enoate] | – | 25 to 250 | – | –
6 | CCC(CC)CNC(=O)Cn1cccc(NC(=O)[C@H](CC/C=C/C(=O)OC)NC(=O)c2cncn2C)c1=O [Ref. 2, reference compound] | – | 25 to 250 | – | 80

Results, then the molecule that gave them:

Row | Papp [1] [×10⁻⁶ cm/s] | IC50 [2] [nM] | logD [3] | fold more potent compared to Ref. 3 ([2]; DCC-assay IC50 ratio vs Ref. 3 (A8)) [fold] | SMILES
7 | 1 to 10 | < 25 | 3 to 5 | – | COC(=O)/C=C/CC[C@H](NC(=O)c1oc2ccccc2c1C)C(=O)Nc1cccn(CC(=O)N[C@@H]2C[C@@H]3CC[C@H]2C3)c1=O [III-59, (S,E)-methyl 7-(1-(2-((1 S,2R,4R)-bicyclo[2.2.1]heptan-2-ylamino)-2-oxoethyl)-2-oxo-1,2-dihydropyridin-3-ylamino)-6-(3-methylbenzofuran-2-carboxamido)-7-oxohept-2-enoate]
8 | 1 to 10 | < 25 | 3 to 5 | – | COC(=O)/C=C/CC[C@H](NC(=O)c1oc2ccccc2c1C)C(=O)Nc1cccn(CC(=O)N[C@@H]2C[C@H]3CC[C@]2(C)C3(C)C)c1=O [III-68, (S,E)-methyl 6-(3-methylbenzofuran-2-carboxamido)-7-oxo-7-(2-oxo-1-(2-oxo-2-((1R,2R,4R)-1,7,7-trimethylbicyclo[2.2.1]heptan-2-ylamino)ethyl)-1,2-dihydropyridin-3-ylamino)hept-2-enoate]
9 | 1 to 10 | < 25 | 1 to 3 | – | COC(=O)/C=C/CC[C@H](NC(=O)c1sc(C(F)(F)F)nc1C)C(=O)Nc1cccn(CC(=O)N[C@@H]2C[C@H]3CC[C@@H]2C3)c1=O [III-98, (S,E)-methyl 7-(1-(2-((1R,2R,4S)-bicyclo[2.2.1]heptan-2-ylamino)-2-oxoethyl)-2-oxo-1,2-dihydropyridin-3-ylamino)-6-(4-methyl-2-(trifluoromethyl)thiazole-5-carboxamido)-7-oxohept-2-enoate]

From patent US20240317708A1, “INHIBITORS OF TRANSGLUTAMINASES” (ZEDIRA GMBH, priority 2021, published 2024)
